Experimental data taken from publication PMC5563081, “Modulating Protein-Protein Interactions of the Mitotic Polo-like Kinases to Target Mutant KRAS” (Cell Chemical Biology, 2017).

Tests used:
Assay in all cases: DiscoverX KINOMEscan
Assay type in all cases: binding
Details in all cases: read-out: % Control
AAK1 = target: T1, AAK1 (Homo sapiens, UniProt Q2M2I8)
T1 construct: purchased DiscoverX KINOMEscan
Description: (§1) A panel of 55 proteins (comprising 51 human kinases structurally or functionally related to the PLKs, plus the kinase catalytic domains of PLK1, PLK2, PLK3 and PLK4) were selected for testing by DiscoverX using the KINOMEscan assay platform. Compounds were supplied as 40x DMSO stocks and were tested at a final concentration of 50μM for Poloppin and 5μM for Poloppin-II. Binding interactions were reported as percentage of control where lower numbers indicate stronger binding. A cut-off of <35% was applied to report significant binding.

AURKA = target: T2, AURKA (Homo sapiens, UniProt O14965)
T2 construct: purchased DiscoverX KINOMEscan
Description: as §1

AURKB = target: T3, AURKB (Homo sapiens, UniProt Q96GD4)
T3 construct: purchased DiscoverX KINOMEscan
Description: as §1

AURKC = target: T4, AURKC (Homo sapiens, UniProt Q9UQB9)
T4 construct: purchased DiscoverX KINOMEscan
T4 sequence (Q9UQB9 whole entry): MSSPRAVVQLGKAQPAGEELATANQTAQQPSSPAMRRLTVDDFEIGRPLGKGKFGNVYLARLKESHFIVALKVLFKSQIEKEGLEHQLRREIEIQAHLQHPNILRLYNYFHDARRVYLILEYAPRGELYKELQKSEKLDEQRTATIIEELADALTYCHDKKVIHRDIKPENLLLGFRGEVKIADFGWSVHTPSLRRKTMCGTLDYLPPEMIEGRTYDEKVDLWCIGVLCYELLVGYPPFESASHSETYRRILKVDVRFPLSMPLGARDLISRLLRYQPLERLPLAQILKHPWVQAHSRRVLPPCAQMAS
Description: as §1

BMP2K = target: T5, BMP2K (Homo sapiens, UniProt Q9NSY1)
T5 construct: purchased DiscoverX KINOMEscan
Description: as §1

CAMKK1 = target: T6, CAMKK1 (Homo sapiens, UniProt Q8N5S9)
T6 construct: purchased DiscoverX KINOMEscan
Description: as §1

CAMKK2 = target: T7, CAMKK2 (Homo sapiens, UniProt Q96RR4)
T7 construct: purchased DiscoverX KINOMEscan
Description: as §1

CDK2 = target: T8, CDK2 (Homo sapiens, UniProt P24941)
T8 construct: purchased DiscoverX KINOMEscan
Description: as §1

CHUK = target: T9, CHUK (Homo sapiens, UniProt O15111)
T9 construct: purchased DiscoverX KINOMEscan
Description: as §1

DSTYK = target: T10, DSTYK (Homo sapiens, UniProt Q6XUX3)
T10 construct: purchased DiscoverX KINOMEscan
Description: as §1

ERN1 = target: T11, ERN1 (Homo sapiens, UniProt O75460)
T11 construct: purchased DiscoverX KINOMEscan
Description: as §1

GSG2 = target: T12, GSG2 (Homo sapiens, UniProt Q8TF76)
T12 construct: purchased DiscoverX KINOMEscan
Description: as §1

IKBKB = target: T13, IKBKB (Homo sapiens, UniProt O14920)
T13 construct: purchased DiscoverX KINOMEscan
Description: as §1

IKBKE = target: T14, IKBKE (Homo sapiens, UniProt Q14164)
T14 construct: purchased DiscoverX KINOMEscan
Description: as §1

NEK1 = target: T15, NEK1 (Homo sapiens, UniProt Q96PY6)
T15 construct: purchased DiscoverX KINOMEscan
T15 sequence (Q96PY6 whole entry): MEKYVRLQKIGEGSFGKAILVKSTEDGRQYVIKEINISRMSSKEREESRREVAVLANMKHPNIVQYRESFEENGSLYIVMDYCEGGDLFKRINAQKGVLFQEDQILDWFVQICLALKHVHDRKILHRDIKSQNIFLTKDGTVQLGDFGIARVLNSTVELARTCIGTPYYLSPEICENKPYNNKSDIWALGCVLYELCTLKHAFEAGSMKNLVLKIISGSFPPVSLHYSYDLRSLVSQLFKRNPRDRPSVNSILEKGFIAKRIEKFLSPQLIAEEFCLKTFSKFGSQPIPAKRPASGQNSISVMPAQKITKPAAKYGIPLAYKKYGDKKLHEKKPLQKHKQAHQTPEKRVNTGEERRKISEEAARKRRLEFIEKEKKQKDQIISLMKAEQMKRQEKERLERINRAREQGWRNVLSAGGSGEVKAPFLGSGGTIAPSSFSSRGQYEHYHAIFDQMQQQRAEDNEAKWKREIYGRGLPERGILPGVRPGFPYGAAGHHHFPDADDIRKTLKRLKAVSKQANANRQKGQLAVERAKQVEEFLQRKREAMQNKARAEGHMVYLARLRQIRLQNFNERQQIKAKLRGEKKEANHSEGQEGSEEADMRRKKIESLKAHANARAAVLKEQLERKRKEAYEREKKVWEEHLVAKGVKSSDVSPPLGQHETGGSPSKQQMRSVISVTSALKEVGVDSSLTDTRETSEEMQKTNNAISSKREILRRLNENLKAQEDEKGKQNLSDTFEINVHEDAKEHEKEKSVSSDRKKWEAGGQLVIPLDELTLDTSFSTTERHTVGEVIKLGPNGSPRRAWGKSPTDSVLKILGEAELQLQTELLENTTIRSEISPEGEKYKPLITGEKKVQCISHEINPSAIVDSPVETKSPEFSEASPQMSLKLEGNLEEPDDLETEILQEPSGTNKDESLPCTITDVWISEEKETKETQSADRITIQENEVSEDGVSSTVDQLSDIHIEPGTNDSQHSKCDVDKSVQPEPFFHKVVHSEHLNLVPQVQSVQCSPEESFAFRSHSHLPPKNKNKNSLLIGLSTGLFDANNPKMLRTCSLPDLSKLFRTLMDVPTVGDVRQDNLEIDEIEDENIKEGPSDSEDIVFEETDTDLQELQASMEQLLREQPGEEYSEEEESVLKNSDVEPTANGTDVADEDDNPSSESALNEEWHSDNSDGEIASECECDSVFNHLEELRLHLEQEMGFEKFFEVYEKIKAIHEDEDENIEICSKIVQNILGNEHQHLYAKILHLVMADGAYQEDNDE
Description: as §1

NEK10 = target: T16, NEK10 (Homo sapiens, UniProt Q6ZWH5)
T16 construct: purchased DiscoverX KINOMEscan
Description: as §1

NEK11 = target: T17, NEK11 (Homo sapiens, UniProt Q8NG66)
T17 construct: purchased DiscoverX KINOMEscan
Description: as §1

NEK2 = target: T18, NEK2 (Homo sapiens, UniProt P51955)
T18 construct: purchased DiscoverX KINOMEscan
T18 sequence (P51955 whole entry): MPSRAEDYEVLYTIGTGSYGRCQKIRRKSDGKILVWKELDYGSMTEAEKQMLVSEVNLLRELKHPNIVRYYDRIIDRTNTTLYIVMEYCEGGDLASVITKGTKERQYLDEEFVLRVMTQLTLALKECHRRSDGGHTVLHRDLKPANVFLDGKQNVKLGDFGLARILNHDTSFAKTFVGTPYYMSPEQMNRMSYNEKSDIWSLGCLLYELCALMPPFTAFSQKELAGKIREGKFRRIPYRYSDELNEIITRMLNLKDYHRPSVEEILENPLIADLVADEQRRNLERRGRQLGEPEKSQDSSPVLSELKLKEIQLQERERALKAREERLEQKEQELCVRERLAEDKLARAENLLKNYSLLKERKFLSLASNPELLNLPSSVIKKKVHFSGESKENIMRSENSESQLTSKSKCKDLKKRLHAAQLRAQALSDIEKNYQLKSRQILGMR
Description: as §1

NEK4 = target: T19, NEK4 (Homo sapiens, UniProt P51957)
T19 construct: purchased DiscoverX KINOMEscan
Description: as §1

NEK5 = target: T20, NEK5 (Homo sapiens, UniProt Q6P3R8)
T20 construct: purchased DiscoverX KINOMEscan
T20 sequence (Q6P3R8 whole entry): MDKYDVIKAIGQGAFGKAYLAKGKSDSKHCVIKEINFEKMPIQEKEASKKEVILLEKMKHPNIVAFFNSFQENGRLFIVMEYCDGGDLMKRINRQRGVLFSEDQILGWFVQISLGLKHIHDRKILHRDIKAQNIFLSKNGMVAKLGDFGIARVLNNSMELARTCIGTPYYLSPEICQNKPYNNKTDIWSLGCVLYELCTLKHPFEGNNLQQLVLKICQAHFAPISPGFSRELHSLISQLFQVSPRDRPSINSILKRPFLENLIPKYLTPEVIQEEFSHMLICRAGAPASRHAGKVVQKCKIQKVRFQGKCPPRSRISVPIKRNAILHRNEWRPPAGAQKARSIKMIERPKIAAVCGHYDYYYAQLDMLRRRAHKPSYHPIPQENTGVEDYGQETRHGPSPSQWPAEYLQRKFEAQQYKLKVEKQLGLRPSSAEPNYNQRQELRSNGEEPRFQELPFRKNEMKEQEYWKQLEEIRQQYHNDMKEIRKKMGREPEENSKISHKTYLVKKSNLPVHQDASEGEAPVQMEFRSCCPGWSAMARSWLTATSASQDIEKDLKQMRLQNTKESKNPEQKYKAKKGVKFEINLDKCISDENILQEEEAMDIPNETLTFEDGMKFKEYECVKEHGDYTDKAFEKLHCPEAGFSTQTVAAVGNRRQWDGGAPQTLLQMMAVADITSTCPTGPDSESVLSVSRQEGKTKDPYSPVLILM
Description: as §1

NEK7 = target: T21, NEK7 (Homo sapiens, UniProt Q8TDX7)
T21 construct: purchased DiscoverX KINOMEscan
Description: as §1

NEK9 = target: T22, NEK9 (Homo sapiens, UniProt Q8TD19)
T22 construct: purchased DiscoverX KINOMEscan
T22 sequence (Q8TD19 whole entry): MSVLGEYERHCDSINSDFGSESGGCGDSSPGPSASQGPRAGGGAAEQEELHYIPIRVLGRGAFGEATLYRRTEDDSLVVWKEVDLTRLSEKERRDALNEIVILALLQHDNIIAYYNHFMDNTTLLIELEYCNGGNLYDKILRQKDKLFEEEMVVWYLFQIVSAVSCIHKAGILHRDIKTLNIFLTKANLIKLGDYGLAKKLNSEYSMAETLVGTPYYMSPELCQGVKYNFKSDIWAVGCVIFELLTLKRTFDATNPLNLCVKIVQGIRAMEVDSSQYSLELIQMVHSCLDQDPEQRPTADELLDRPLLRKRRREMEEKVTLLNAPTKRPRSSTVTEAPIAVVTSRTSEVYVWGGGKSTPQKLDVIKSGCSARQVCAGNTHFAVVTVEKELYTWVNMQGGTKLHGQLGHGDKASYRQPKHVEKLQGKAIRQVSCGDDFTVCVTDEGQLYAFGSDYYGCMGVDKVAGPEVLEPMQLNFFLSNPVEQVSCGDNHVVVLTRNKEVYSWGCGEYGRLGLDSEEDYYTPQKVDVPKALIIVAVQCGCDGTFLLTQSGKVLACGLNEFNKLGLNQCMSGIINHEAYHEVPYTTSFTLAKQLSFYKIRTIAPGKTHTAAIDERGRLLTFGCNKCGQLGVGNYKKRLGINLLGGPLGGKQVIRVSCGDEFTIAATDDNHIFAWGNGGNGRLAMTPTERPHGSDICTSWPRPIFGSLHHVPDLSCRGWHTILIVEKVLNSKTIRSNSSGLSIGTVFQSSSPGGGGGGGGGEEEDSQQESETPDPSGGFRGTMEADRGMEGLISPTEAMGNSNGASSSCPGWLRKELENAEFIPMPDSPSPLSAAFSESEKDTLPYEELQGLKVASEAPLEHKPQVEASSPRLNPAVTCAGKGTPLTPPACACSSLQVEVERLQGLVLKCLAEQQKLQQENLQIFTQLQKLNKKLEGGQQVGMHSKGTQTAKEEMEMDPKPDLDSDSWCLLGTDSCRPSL
Description: as §1

PKMYT1 = target: T23, PKMYT1 (Homo sapiens, UniProt Q99640)
T23 construct: purchased DiscoverX KINOMEscan
Description: as §1

[1] = target: T24, PLK1 kinase catalytic domain (Homo sapiens, UniProt P53350)
T24 construct: PLK1 kinase catalytic domain; purchased DiscoverX KINOMEscan
Description: as §1

[2] = target: T25, PLK3 kinase catalytic domain (Homo sapiens, UniProt Q9H4B4)
T25 construct: PLK3 kinase catalytic domain; purchased DiscoverX KINOMEscan
T25 sequence (Q9H4B4 62-314 limits assumed): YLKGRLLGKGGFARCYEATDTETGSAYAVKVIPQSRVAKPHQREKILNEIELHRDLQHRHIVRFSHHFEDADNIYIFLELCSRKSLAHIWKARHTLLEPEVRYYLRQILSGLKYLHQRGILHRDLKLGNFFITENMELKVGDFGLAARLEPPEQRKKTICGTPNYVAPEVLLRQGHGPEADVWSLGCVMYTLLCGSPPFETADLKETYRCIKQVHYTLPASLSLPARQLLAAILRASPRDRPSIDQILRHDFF
Description: as §1

[3] = target: T26, PLK4 kinase catalytic domain (Homo sapiens, UniProt O00444)
T26 construct: PLK4 kinase catalytic domain; purchased DiscoverX KINOMEscan
Description: as §1

SBK1 = target: T27, SBK1 (Homo sapiens, UniProt Q52WX2)
T27 construct: purchased DiscoverX KINOMEscan
Description: as §1

STK16 = target: T28, STK16 (Homo sapiens, UniProt O75716)
T28 construct: purchased DiscoverX KINOMEscan
Description: as §1

STK35 = target: T29, STK35 (Homo sapiens, UniProt Q8TDR2)
T29 construct: purchased DiscoverX KINOMEscan
Description: as §1

STK36 = target: T30, STK36 (Homo sapiens, UniProt Q9NRP7)
T30 construct: purchased DiscoverX KINOMEscan
Description: as §1

SgK110 = target: T31, SgK110 (Homo sapiens, UniProt P0C264)
T31 construct: purchased DiscoverX KINOMEscan
Description: as §1

TBK1 = target: T32, TBK1 (Homo sapiens, UniProt Q9UHD2)
T32 construct: purchased DiscoverX KINOMEscan
Description: as §1

TLK1 = target: T33, TLK1 (Homo sapiens, UniProt Q9UKI8)
T33 construct: purchased DiscoverX KINOMEscan
Description: as §1

TLK2 = target: T34, TLK2 (Homo sapiens, UniProt Q86UE8)
T34 construct: purchased DiscoverX KINOMEscan
Description: as §1

TTK = target: T35, TTK (Homo sapiens, UniProt P33981)
T35 construct: purchased DiscoverX KINOMEscan
Description: as §1

ULK1 = target: T36, ULK1 (Homo sapiens, UniProt O75385)
T36 construct: purchased DiscoverX KINOMEscan
Description: as §1

ULK2 = target: T37, ULK2 (Homo sapiens, UniProt Q8IYT8)
T37 construct: purchased DiscoverX KINOMEscan
Description: as §1

ULK3 = target: T38, ULK3 (Homo sapiens, UniProt Q6PHR2)
T38 construct: purchased DiscoverX KINOMEscan
Description: as §1

WEE1 = target: T39, WEE1 (Homo sapiens, UniProt P30291)
T39 construct: purchased DiscoverX KINOMEscan
Description: as §1

WNK2 = target: T40, WNK2 (Homo sapiens, UniProt Q9Y3S1)
T40 construct: purchased DiscoverX KINOMEscan
Description: as §1

WNK4 = target: T41, WNK4 (Homo sapiens, UniProt Q96J92)
T41 construct: purchased DiscoverX KINOMEscan
Description: as §1

T1 sequence (Q2M2I8 whole entry): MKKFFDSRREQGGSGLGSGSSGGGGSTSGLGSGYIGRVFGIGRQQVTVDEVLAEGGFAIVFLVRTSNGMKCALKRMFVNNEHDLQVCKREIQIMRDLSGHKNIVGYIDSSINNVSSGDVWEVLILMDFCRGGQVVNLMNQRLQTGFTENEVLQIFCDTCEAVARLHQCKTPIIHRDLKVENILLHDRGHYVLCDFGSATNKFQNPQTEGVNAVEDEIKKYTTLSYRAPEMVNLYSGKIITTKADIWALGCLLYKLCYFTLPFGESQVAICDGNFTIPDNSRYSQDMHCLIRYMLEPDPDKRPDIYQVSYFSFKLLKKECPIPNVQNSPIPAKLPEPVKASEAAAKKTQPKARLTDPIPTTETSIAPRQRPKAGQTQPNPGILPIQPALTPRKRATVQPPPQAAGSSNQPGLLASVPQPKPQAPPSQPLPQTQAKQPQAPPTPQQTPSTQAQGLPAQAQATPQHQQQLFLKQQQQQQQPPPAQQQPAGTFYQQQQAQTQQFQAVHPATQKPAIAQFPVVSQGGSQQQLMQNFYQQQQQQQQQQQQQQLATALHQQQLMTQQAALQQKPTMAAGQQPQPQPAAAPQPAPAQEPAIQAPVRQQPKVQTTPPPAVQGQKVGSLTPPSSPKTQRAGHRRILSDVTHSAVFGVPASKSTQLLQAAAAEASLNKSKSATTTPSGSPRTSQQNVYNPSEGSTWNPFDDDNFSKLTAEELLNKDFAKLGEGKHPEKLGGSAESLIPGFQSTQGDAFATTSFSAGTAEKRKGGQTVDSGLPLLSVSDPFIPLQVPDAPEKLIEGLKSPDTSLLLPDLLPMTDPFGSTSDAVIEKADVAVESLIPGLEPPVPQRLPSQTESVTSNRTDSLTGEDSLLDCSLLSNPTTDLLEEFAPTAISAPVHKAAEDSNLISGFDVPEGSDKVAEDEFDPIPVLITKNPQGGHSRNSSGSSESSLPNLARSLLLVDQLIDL

CN(C)CCNC(=O)c1ccc(-c2ccc(-c3ccc(Cl)cc3)n2-c2ccccc2C(F)(F)F)cc1 [Poloppin-II]
remaining binding at 5 µM (AAK1; AAK1, Poloppin-II 5µM, hit <35%): 100% | remaining binding at 5 µM (AURKA; AURKA, Poloppin-II 5µM, hit <35%): 83% | remaining binding at 5 µM (AURKB; AURKB, Poloppin-II 5µM, hit <35%): 95% | remaining binding at 5 µM (AURKC; AURKC, Poloppin-II 5µM, hit <35%): 85% | remaining binding at 5 µM (BMP2K; BMP2K, Poloppin-II 5µM, hit <35%): 85% | remaining binding at 5 µM (CAMKK1; CAMKK1, Poloppin-II 5µM, hit <35%): 91% | remaining binding at 5 µM (CAMKK2; CAMKK2, Poloppin-II 5µM, hit <35%): 97% | remaining binding at 5 µM (CDK2; CDK2, Poloppin-II 5µM, hit <35%): 89% | remaining binding at 5 µM (CHUK; CHUK, Poloppin-II 5µM, hit <35%): 100% | remaining binding at 5 µM (DSTYK; DSTYK, Poloppin-II 5µM, hit <35%): 75% | remaining binding at 5 µM (ERN1; ERN1, Poloppin-II 5µM, hit <35%): 74% | remaining binding at 5 µM (GSG2; GSG2, Poloppin-II 5µM, hit <35%): 77% | remaining binding at 5 µM (IKBKB; IKBKB, Poloppin-II 5µM, hit <35%): 100% | remaining binding at 5 µM (IKBKE; IKBKE, Poloppin-II 5µM, hit <35%): 75% | remaining binding at 5 µM (NEK1; NEK1, Poloppin-II 5µM, hit <35%): 100% | remaining binding at 5 µM (NEK10; NEK10, Poloppin-II 5µM, hit <35%): 94% | remaining binding at 5 µM (NEK11; NEK11, Poloppin-II 5µM, hit <35%): 100% | remaining binding at 5 µM (NEK2; NEK2, Poloppin-II 5µM, hit <35%): 94% | remaining binding at 5 µM (NEK4; NEK4, Poloppin-II 5µM, hit <35%): 100% | remaining binding at 5 µM (NEK5; NEK5, Poloppin-II 5µM, hit <35%): 99% | remaining binding at 5 µM (NEK7; NEK7, Poloppin-II 5µM, hit <35%): 79% | remaining binding at 5 µM (NEK9; NEK9, Poloppin-II 5µM, hit <35%): 92% | remaining binding at 5 µM (PKMYT1; PKMYT1, Poloppin-II 5µM, hit <35%): 100% | remaining binding at 5 µM ([1]; PLK1, Poloppin-II 5µM, hit <35%): 100% | remaining binding at 5 µM ([2]; PLK3, Poloppin-II 5µM, hit <35%): 74% | remaining binding at 5 µM ([3]; PLK4, Poloppin-II 5µM, hit <35%): 90% | remaining binding at 5 µM (SBK1; SBK1, Poloppin-II 5µM, hit <35%): 61% | remaining binding at 5 µM (STK16; STK16, Poloppin-II 5µM, hit <35%): 92% | remaining binding at 5 µM (STK35; STK35, Poloppin-II 5µM, hit <35%): 71% | remaining binding at 5 µM (STK36; STK36, Poloppin-II 5µM, hit <35%): 91% | remaining binding at 5 µM (SgK110; SgK110, Poloppin-II 5µM, hit <35%): 100% | remaining binding at 5 µM (TBK1; TBK1, Poloppin-II 5µM, hit <35%): 80% | remaining binding at 5 µM (TLK1; TLK1, Poloppin-II 5µM, hit <35%): 99% | remaining binding at 5 µM (TLK2; TLK2, Poloppin-II 5µM, hit <35%): 94% | remaining binding at 5 µM (TTK; TTK, Poloppin-II 5µM, hit <35%): 83% | remaining binding at 5 µM (ULK1; ULK1, Poloppin-II 5µM, hit <35%): 84% | remaining binding at 5 µM (ULK2; ULK2, Poloppin-II 5µM, hit <35%): 100% | remaining binding at 5 µM (ULK3; ULK3, Poloppin-II 5µM, hit <35%): 88% | remaining binding at 5 µM (WEE1; WEE1, Poloppin-II 5µM, hit <35%): 98% | remaining binding at 5 µM (WNK2; WNK2, Poloppin-II 5µM, hit <35%): 100% | remaining binding at 5 µM (WNK4; WNK4, Poloppin-II 5µM, hit <35%): 91%

O=C(O)CCc1ccc(-c2ccc(Br)cc2)n1-c1ccccc1C(F)(F)F [Poloppin]
remaining binding at 50 µM (AAK1): 92% | remaining binding at 50 µM (AURKA): 81% | remaining binding at 50 µM (AURKB): 87% | remaining binding at 50 µM (AURKC): 81% | remaining binding at 50 µM (BMP2K): 68% | remaining binding at 50 µM (CAMKK1): 77% | remaining binding at 50 µM (CAMKK2): 82% | remaining binding at 50 µM (CDK2): 84% | remaining binding at 50 µM (CHUK): 100% | remaining binding at 50 µM (DSTYK): 49% | remaining binding at 50 µM (ERN1): 76% | remaining binding at 50 µM (GSG2): 100% | remaining binding at 50 µM (IKBKB): 100% | remaining binding at 50 µM (IKBKE): 55% | remaining binding at 50 µM (NEK1): 57% | remaining binding at 50 µM (NEK10): 98% | remaining binding at 50 µM (NEK11): 100% | remaining binding at 50 µM (NEK2): 95% | remaining binding at 50 µM (NEK4): 100% | remaining binding at 50 µM (NEK5): 83% | remaining binding at 50 µM (NEK7): 68% | remaining binding at 50 µM (NEK9): 95% | remaining binding at 50 µM (PKMYT1): 98% | remaining binding at 50 µM [1]: 100% | remaining binding at 50 µM [2]: 83% | remaining binding at 50 µM [3]: 88% | remaining binding at 50 µM (SBK1): 61% | remaining binding at 50 µM (STK16): 81% | remaining binding at 50 µM (STK35): 100% | remaining binding at 50 µM (STK36): 91% | remaining binding at 50 µM (SgK110): 94% | remaining binding at 50 µM (TBK1): 75% | remaining binding at 50 µM (TLK1): 100% | remaining binding at 50 µM (TLK2): 90% | remaining binding at 50 µM (TTK): 85% | remaining binding at 50 µM (ULK1): 84% | remaining binding at 50 µM (ULK2): 100% | remaining binding at 50 µM (ULK3): 94% | remaining binding at 50 µM (WEE1): 99% | remaining binding at 50 µM (WNK2): 100% | remaining binding at 50 µM (WNK4): 100%
